Our source for the EC50 and Ki values is patent US20240279278A1, “NMU RECEPTOR 2 AGONISTS” (Boehringer Ingelheim International GmbH, priority 2023, published 2024).

In test [1] the target is T1, human NMUR1 receptor (Homo sapiens, UniProt Q9HB89).
T1 construct: expressed in transfected cells; host or cells: CHO-K1
T1 sequence (Q9HB89 1-426): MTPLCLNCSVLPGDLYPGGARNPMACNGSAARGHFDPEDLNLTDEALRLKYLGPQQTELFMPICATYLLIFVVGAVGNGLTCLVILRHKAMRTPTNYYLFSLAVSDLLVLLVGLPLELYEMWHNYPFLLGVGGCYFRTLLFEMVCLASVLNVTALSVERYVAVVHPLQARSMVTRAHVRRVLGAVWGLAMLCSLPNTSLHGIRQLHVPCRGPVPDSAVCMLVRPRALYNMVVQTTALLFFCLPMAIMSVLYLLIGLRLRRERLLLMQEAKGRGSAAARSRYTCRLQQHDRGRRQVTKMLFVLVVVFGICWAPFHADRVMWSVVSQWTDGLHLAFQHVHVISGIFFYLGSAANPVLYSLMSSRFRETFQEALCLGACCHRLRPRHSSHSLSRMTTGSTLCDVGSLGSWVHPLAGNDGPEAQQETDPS
As to the kind of experiment: IP1 Gq HTRF assay, activation of human NMUR1 in buffer. The format is cell-based. The following applies: CHO-K1 cells expressing human NMUR1, stimulation buffer with 0.1% BSA; read-out: EC50 (hNMUR1) buffer. In outline: (§1)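 IP-One HTRF competition (665/620 nm ratio) read after 1 h agonist exposure at 37 °C in pH 7.4 HEPES/HBSS stimulation buffer containing 50 mM LiCl, 0.1% BSA, 1% DMSO. Cells: CHO-K1 stably expressing human NMUR2 or NMUR1. EC50 by 4-parameter nonlinear regression of 8-point curves.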
On the technique in general: Time-resolved FRET reads energy transfer from a long-lived donor to a nearby acceptor.

Test [2] concerns the target T2, human NMUR2 receptor (Homo sapiens, UniProt Q9GZQ4). In words: Radioligand binding competition assay (RLB), human NMUR2 receptor binding (SPA, [125I]-Neuromedin U-25). More on the design: host or cells: CHO-K1. As to conditions: CHO-K1 hNMUR2 cell membranes, 4 hours at RT. An excerpt:
Example 1: Radioligand Binding Competition Assay (RLB) Human NMUR2 Receptor Binding
The test is based on membranes prepared from a Human NMUR2/Apoaequorin Stable Cell Line (Creative Biogene, Cat. No. CSC-RG1309).
Cell Line Description: CHO-NMUR2 cell line is clonally derived from a CHO-K1 cell line, which has been transfected with a bicistronic expression plasmid containing the sequence coding for the human neuromedin U receptor 2 (AF242874.1). MOSAIC-ID: CL16550616.
Membrane preparation: Cells were broken by nitrogen cavitation (900 psi, 1 hour). Intact cells were removed by centrifugation (400 rcf (relative centrifugal force), 10 minutes, 4° C.) before the crude membrane fraction was collected by ultracentrifugation (20.000 rcf, 1 hour, 4° C.).
2) Human NMUR2 Receptor Binding Assay (Radioligand: [125I]-Neuromedin U-25 (Human))
In this Scintillation Proximity Assay (SPA) design, the membranes immobilize directly to the PVT-WGA-PEI type A beads (polyethyleneimine treated polyvinyltoluene beads coupled to wheatgerm agglutinin, Perkin Elmer) via interactions of wheat germ agglutinate and glycosylated membrane structures. Thereby the radioactively la-belled ligand, bound to NMUR2 receptors on the membrane, comes in close proximity to the solid scintillator of the PVT bead. Radioactive human neuromedin U-25 then stimulates the scintillant to emit light. In contrast, radioligand not bound to the receptor is too distant from the bead to elicit a signal.
For the Scintillation Proximity Assay the CHO-K1 hNMUR2 cell membranes and SPA-beads are diluted to concentrations, which assure a robust signal to background ratio. The SPA incubation buffer consists of 25 mM Hepes (pH=7.0), 5 mM MgCl2, 1 mM CaCl2, 10 ug/mL Saponine and 0.1% bovine serum albumin and is used for all dilutions.
Final assay setup in 96-well plate: 20 μL of 10× test compound dilutions+40 μL of 5× [125l]-Neuromedin U-25 (1× approx. 30 pM; 2000 μCi/mmol)+60 μL membrane dilution (approx. 2.5 μg membrane protein)+80 μL SPA bead dilution (0.75 mg).
The assay is incubated for 4 hours at RT, including controls for specific binding where no displacer is added and non-specific binding by adding unlabeled hNMU-25 at 100 nM. Bound radioactivity is determined by scintillation counting (MicroBeta Trilux 1450, Perkin Elmer, detection of 125I decay). […] The system assumes one binding site with no relevant radioligand depletion (<10%) and that the binding is reversible and at equilibrium.

For test [3], the target named is T2, human NMUR2 receptor. As to the kind of experiment: IP1 Gq HTRF assay, activation of human NMUR2 in buffer. As to conditions: CHO-K1 cells expressing human NMUR2, stimulation buffer with 0.1% BSA; read-out: EC50 (hNMUR2) buffer. Also on record: expressed in transfected cells; host or cells: CHO-K1. The format is cell-based. In outline:
as §1

Structures are written as SMILES. pEC50, pKi: −log10 of the molar value. Residues, ends and D or L forms follow the SMILES beside them.

T2 sequence (Q9GZQ4 whole entry): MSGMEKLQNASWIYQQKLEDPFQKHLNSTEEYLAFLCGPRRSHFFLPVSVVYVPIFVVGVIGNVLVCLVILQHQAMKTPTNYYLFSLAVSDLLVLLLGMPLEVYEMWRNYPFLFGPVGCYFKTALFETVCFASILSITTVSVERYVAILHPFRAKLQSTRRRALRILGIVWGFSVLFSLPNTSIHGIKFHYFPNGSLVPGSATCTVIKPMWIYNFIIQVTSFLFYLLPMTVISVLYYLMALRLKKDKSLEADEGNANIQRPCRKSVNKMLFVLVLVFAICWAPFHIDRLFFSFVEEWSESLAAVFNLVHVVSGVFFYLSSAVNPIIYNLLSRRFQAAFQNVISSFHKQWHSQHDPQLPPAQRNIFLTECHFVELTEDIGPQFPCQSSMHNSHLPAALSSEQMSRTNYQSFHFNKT

Take `CCCC[C@H](NC(=O)[C@H](CC(C)C)N(C)C(=O)[C@H](Cc1ccccc1)NC(=O)[C@H](Cc1ccc(O)cc1)NC(=O)CN1CCN(CCNC(=O)CN(C)C(=O)CN(C)C(=O)CN(C)C(=O)CN(C)C(=O)CN(C)C(=O)CN(C)C(=O)CN(C)C(=O)CN(C)C(=O)CN(C)C(=O)CN(C)C(=O)CN(C)C(=O)CN(C)C(=O)CN(C)C(=O)CN(C)C(=O)CN(C)C(=O)CC[C@H](NC(=O)CC[C@H](NC(=O)CC[C@H](NC(=O)CCCCCCCCCCCCCCCCC(=O)O)C(=O)O)C(=O)O)C(=O)O)CC1)C(=O)N[C@@H](CCCNC(=N)N)C(=O)N(C)[C@@H](C)C(=O)N[C@@H](CCCNC(=N)N)C(=O)NCC(N)=O` [Compound 11, C18DA-gGlu3-Sar15-AEPipAc-Tyr-Phe-NMeLeu-Nle-Arg-NMeAla-Arg-Gly-NH2] (HELM PEPTIDE1{[O=C(O)CCCCCCCCCCCCCCCCC(=O)[*:2]].[gGlu].[gGlu].[gGlu].[Sar].[Sar].[Sar].[Sar].[Sar].[Sar].[Sar].[Sar].[Sar].[Sar].[Sar].[Sar].[Sar].[Sar].[Sar].[O=C(CN1CCN(CCN[*:1])CC1)[*:2]].Y.F.[meL].[Nle].R.[meA].R.G.[am]}$$$$V2.0): the pEC50 – broadly, the EC50 on a negative log10 scale, so that one unit is a factor of ten – in test [1] was 5.96; in test [3], 8.55. The pKi – broadly, the Ki on a negative log10 scale, so that one unit is a factor of ten – in test [2] is 7.12.

`CCCC[C@H](NC(=O)[C@H](CC(C)C)N(C)C(=O)[C@H](Cc1ccccc1)NC(=O)[C@H](Cc1ccc(O)cc1)NC(=O)CN1CCN(CCNC(=O)CN(C)C(=O)CN(C)C(=O)CN(C)C(=O)CN(C)C(=O)CN(C)C(=O)CN(C)C(=O)CN(C)C(=O)CN(C)C(=O)CN(C)C(=O)CN(C)C(=O)CN(C)C(=O)CN(C)C(=O)CC[C@H](NC(=O)CC[C@H](NC(=O)CC[C@H](NC(=O)CCCCCCCCCCCCCCCCC(=O)O)C(=O)O)C(=O)O)C(=O)O)CC1)C(=O)N[C@@H](CCCNC(=N)N)C(=O)N(C)[C@@H](C)C(=O)N[C@@H](CCCNC(=N)N)C(=O)NCC(N)=O` [Compound 12, C18DA-gGlu3-Sar12-AEPipAc-Tyr-Phe-NMeLeu-Nle-Arg-NMeAla-Arg-Gly-NH2]: the pEC50 in test [1] is 6.00; in test [3], 8.57. Also, in test [2], the pKi was 7.44.

With `CCCC[C@H](NC(=O)[C@H](CC(C)C)N(C)C(=O)[C@H](Cc1ccccc1)NC(=O)[C@H](Cc1ccc(O)cc1)NC(=O)CN1CCN(CCNC(=O)CN(C)C(=O)CN(C)C(=O)CN(C)C(=O)CN(C)C(=O)CN(C)C(=O)CN(C)C(=O)CN(C)C(=O)CN(C)C(=O)CN(C)C(=O)CN(C)C(=O)CN(C)C(=O)CN(C)C(=O)CC[C@H](NC(=O)CC[C@H](NC(=O)CC[C@H](NC(=O)CCCCCCCCCCCCCCCCC(=O)O)C(=O)O)C(=O)O)C(=O)O)CC1)C(=O)N[C@@H](CCCN)C(=O)N(C)[C@@H](C)C(=O)N[C@@H](CCCNC(=N)N)C(=O)NCC(N)=O` [Compound 20, C18DA-gGlu3-Sar12-AEPipAc-Tyr-Phe-NMeLeu-Nle-Orn-NMeAla-Arg-Gly-NH2], the pEC50 is < 6.00 in test [1] and 8.66 in test [3]. Also, the pKi in test [2] is 7.63.

As to `CCCC[C@H](NC(=O)[C@H](CC(C)C)N(C)C(=O)[C@H](Cc1ccccc1)NC(=O)[C@H](Cc1ccc(O)cc1)NC(=O)CN1CCN(CCNC(=O)CN(C)C(=O)CN(C)C(=O)CN(C)C(=O)CN(C)C(=O)CN(C)C(=O)CN(C)C(=O)CN(C)C(=O)CN(C)C(=O)CN(C)C(=O)CN(C)C(=O)CN(C)C(=O)CN(C)C(=O)CN(C)C(=O)CN(C)C(=O)CN(C)C(=O)CC[C@H](NC(=O)CC[C@H](NC(=O)CC[C@H](NC(=O)CCCCCCCCCCCCCCCCC(=O)O)C(=O)O)C(=O)O)C(=O)O)CC1)C(=O)N[C@@H](CCCN)C(=O)N1CCC[C@H]1C(=O)N[C@@H](CCCNC(=N)N)C(=O)NCC(N)=O` [Compound 21, C18DA-gGlu3-Sar15-AEPipAc-Tyr-Phe-NMeLeu-Nle-Orn-Pro-Arg-Gly-NH2] (HELM PEPTIDE1{[O=C(O)CCCCCCCCCCCCCCCCC(=O)[*:2]].[gGlu].[gGlu].[gGlu].[Sar].[Sar].[Sar].[Sar].[Sar].[Sar].[Sar].[Sar].[Sar].[Sar].[Sar].[Sar].[Sar].[Sar].[Sar].[O=C(CN1CCN(CCN[*:1])CC1)[*:2]].Y.F.[meL].[Nle].[Orn].P.R.G.[am]}$$$$V2.0), the results for the pEC50 in test [1] and in test [3] were < 6.00 and 8.59, respectively. This molecule also had a pKi in test [2] of 7.25.

On to `CCCC[C@H](NC(=O)[C@H](CC(C)C)N(C)C(=O)[C@H](Cc1ccccc1)NC(=O)[C@H](Cc1ccc(O)cc1)NC(=O)CN1CCN(CCNC(=O)CN(C)C(=O)CN(C)C(=O)CN(C)C(=O)CN(C)C(=O)CN(C)C(=O)CN(C)C(=O)CN(C)C(=O)CN(C)C(=O)CN(C)C(=O)CN(C)C(=O)CN(C)C(=O)CN(C)C(=O)CN(C)C(=O)CN(C)C(=O)CN(C)C(=O)CC[C@H](NC(=O)CC[C@H](NC(=O)CC[C@H](NC(=O)CCCCCCCCCCCCCCCCC(=O)O)C(=O)O)C(=O)O)C(=O)O)CC1)C(=O)N[C@@H](CCCN)C(=O)N(C)[C@@H](C)C(=O)N[C@@H](CCCNC(=N)N)C(=O)NCC(N)=O` [Compound 22, C18DA-gGlu3-Sar15-AEPipAc-Tyr-Phe-NMeLeu-Nle-Orn-NMeAla-Arg-Gly-NH2] (HELM PEPTIDE1{[O=C(O)CCCCCCCCCCCCCCCCC(=O)[*:2]].[gGlu].[gGlu].[gGlu].[Sar].[Sar].[Sar].[Sar].[Sar].[Sar].[Sar].[Sar].[Sar].[Sar].[Sar].[Sar].[Sar].[Sar].[Sar].[O=C(CN1CCN(CCN[*:1])CC1)[*:2]].Y.F.[meL].[Nle].[Orn].[meA].R.G.[am]}$$$$V2.0), for which the pEC50 in test [1] was < 6.00; in test [3], 8.49. Further, the pKi in test [2] was 7.34.

Take `CCCC[C@H](NC(=O)[C@H](CC(C)C)N(C)C(=O)[C@H](Cc1ccccc1)NC(=O)[C@H](Cc1ccc(O)cc1)NC(=O)CN1CCN(CCNC(=O)CN(C)C(=O)CN(C)C(=O)CN(C)C(=O)CN(C)C(=O)CN(C)C(=O)CN(C)C(=O)CN(C)C(=O)CN(C)C(=O)CN(C)C(=O)CN(C)C(=O)CN(C)C(=O)CN(C)C(=O)CN(C)C(=O)CN(C)C(=O)CN(C)C(=O)CC[C@H](NC(=O)CC[C@H](NC(=O)CC[C@H](NC(=O)CCCCCCCCCCCCCCCCC(=O)O)C(=O)O)C(=O)O)C(=O)O)CC1)C(=O)N[C@@H](CCN)C(=O)N(C)[C@@H](C)C(=O)N[C@@H](CCCNC(=N)N)C(=O)NCC(N)=O` [Compound 23, C18DA-gGlu3-Sar15-AEPipAc-Tyr-Phe-NMeLeu-Nle-Dbu-NMeAla-Arg-Gly-NH2] (HELM PEPTIDE1{[O=C(O)CCCCCCCCCCCCCCCCC(=O)[*:2]].[gGlu].[gGlu].[gGlu].[Sar].[Sar].[Sar].[Sar].[Sar].[Sar].[Sar].[Sar].[Sar].[Sar].[Sar].[Sar].[Sar].[Sar].[Sar].[O=C(CN1CCN(CCN[*:1])CC1)[*:2]].Y.F.[meL].[Nle].[Dab].[meA].R.G.[am]}$$$$V2.0): the pEC50 is < 6.00 in test [1] and 8.48 in test [3]. Besides, the negative-log Ki (pKi) in test [2] is 7.41.
